Experimental data as given in patent publication US11078168B2, “Substituted N-hydroxyamidinoheterocycles as modulators of indoleamine 2,3-dioxygenase” (PHENEX DISCOVERY VERWALTUNGS-GMBH, priority 2016, dated 2021).

Biological target: T1, Indoleamine 2,3-dioxygenase (Homo sapiens, UniProt P14902)
T1 construct: endogenous in cells; host or cells: SKOV-3 (ATCC HTB-77), stimulated with interferon gamma
Test: SKOV-3 cellular Indoleamine 2,3-dioxygenase assay
Settings: SKOV-3 cells, 50 ng/ml Interferon gamma, 100 μM L-Tryptophan, 24 hours, N-Formylkynurenin fluorescence detection; read-out: cell based activity
Summary of the method: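 SKOV-3 cells stimulated with 50 ng/ml interferon gamma, exposed to compound dilutions with L-tryptophan at 100 µM final for 24 h at 37 °C. N-formylkynurenine detected by 200 mM 3-methylpiperidine, 65 °C for 20 min, fluorescence ex 405/em 535 nm.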

T1 sequence (P14902 whole entry): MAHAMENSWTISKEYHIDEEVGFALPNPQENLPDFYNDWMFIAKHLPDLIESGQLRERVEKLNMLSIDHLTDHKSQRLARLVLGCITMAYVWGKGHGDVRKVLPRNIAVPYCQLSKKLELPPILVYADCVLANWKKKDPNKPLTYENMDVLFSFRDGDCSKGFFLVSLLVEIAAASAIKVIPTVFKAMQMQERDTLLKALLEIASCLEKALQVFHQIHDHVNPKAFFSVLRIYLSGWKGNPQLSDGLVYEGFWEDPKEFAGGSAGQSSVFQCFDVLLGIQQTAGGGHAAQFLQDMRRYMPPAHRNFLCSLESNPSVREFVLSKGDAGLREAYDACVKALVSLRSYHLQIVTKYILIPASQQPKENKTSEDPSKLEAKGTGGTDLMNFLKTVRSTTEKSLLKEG

First: NS(=O)(=O)NCCSc1nonc1C(=NO)Nc1ccnc(C(F)(F)F)c1 [Example 112/1, N′—Hydroxy-4-((2-(sulfamoylamino)ethyl)thio)—N-(2-(trifluoromethyl)pyridin-4-yl)-1,2,5-oxadiazole-3-carboximidamide]
Second: NS(=O)(=O)NCC(=O)NCCSc1nonc1/C(=N/O)Nc1ccc(F)c(C(F)F)c1 [Example 128, N-(2-((4-(N-(3-(Difluoromethyl)-4-fluorophenyl)-N′-hydroxycarbamimidoyl)-1,2,5-oxadiazol-3-yl)thio)ethyl)-2-(sulfamoylamino)acetamide]
The IC50 of the first is higher: 100 to 1000 nM for the first, less than 100 nM for the second. The second is the more potent here.

Compared with `NC(=O)C(=O)NCCSc1nonc1C(=NO)Nc1ccc(F)c(Cl)c1` [Example 116, N^1-(2-((4-(N-(3-Chloro-4-fluorophenyl)-N′-hydroxycarbamimidoyl)-1,2,5-oxadiazol-3-yl)thio)ethyl)oxalamide], `O=C(NCCSc1nonc1C(=NO)Nc1ccc(F)c(Cl)c1)c1nnn[nH]1` [Example 117, N-(2-((4-(N-(3-Chloro-4-fluorophenyl)-N′-hydroxycarbamimidoyl)-1,2,5-oxadiazol-3-yl)thio)ethyl)-1H-tetrazole-5-carboxamide] is higher in IC50: less than 100 nM for the first, 100 to 1000 nM for the second.

`NC(=O)C(F)(F)C(=O)NCCSc1nonc1C(=NO)Nc1ccc(F)c(C(F)F)c1` [Example 118] and `NC(=O)CC(=O)NCCSc1nonc1C(=NO)Nc1ccc(F)c(C(F)F)c1` [Example 119] cannot be ordered by IC50: less than 100 nM for the first, less than 100 nM for the second.

`CS(=N)(=O)NCCSc1nonc1C(=NO)Nc1ccc(F)c(Cl)c1` (stereo not drawn) [Example 120] and `CS(=N)(=O)CC(=O)NCCSc1nonc1/C(=N/O)Nc1ccc(F)c(Br)c1` (stereo not drawn) [Example 127, N-(2-((4-(N-(3-Bromo-4-fluorophenyl)-N′-hydroxycarbamimidoyl)-1,2,5-oxadiazol-3-yl)thio)ethyl)-2-(S-methylsulfonimidoyl)acetamide] cannot be ordered by IC50: less than 100 nM for the first, less than 100 nM for the second.

First: CS(=O)(=O)Nc1ccc(C(=O)NCCSc2nonc2C(=NO)Nc2ccc(F)c(Cl)c2)cn1 [Example 121, N-(2-((4-(N-(3-Chloro-4-fluorophenyl)-N′-hydroxycarbamimidoyl)-1,2,5-oxadiazol-3-yl)thio)ethyl)-6-(methylsulfonamido)nicotinamide]
Second: CS(=N)(=O)c1ccc(C(=O)NCCSc2nonc2C(=NO)Nc2ccc(F)c(C(F)F)c2)cc1 (stereo not drawn) [Example 122, N-(2-((4-(N-(3-(Difluoromethyl)-4-fluorophenyl)-N′-hydroxycarbamimidoyl)-1,2,5-oxadiazol-3-yl)thio)ethyl)-4-(S-methylsulfonimidoyl)benzamide]
The IC50 of the first is higher: 100 to 1000 nM for the first, less than 100 nM for the second.

`O=C(NCCSc1nonc1C(=NO)Nc1ccc(F)c(Cl)c1)C1(O)CNC1` [Example 123, N-(2-((4-(N-(3-Chloro-4-fluorophenyl)-N′-hydroxycarbamimidoyl)-1,2,5-oxadiazol-3-yl)thio)ethyl)-3-hydroxyazetidine-3-carboxamide] and `NC(=O)C1(C(=O)NCCSc2nonc2C(=NO)Nc2ccc(F)c(C(F)F)c2)CNC1` [Example 126] fall in the same range of IC50: 100 to 1000 nM for the first, 100 to 1000 nM for the second.

First: CCN1CC(O)(C(=O)NCCSc2nonc2C(=NO)Nc2ccc(F)c(C(F)(F)F)c2)C1 [Example 124, 1-Ethyl-N-(2-((4-(N-(4-fluoro-3-(trifluoromethyl)phenyl)-N′-hydroxycarbamimidoyl)-1,2,5-oxadiazol-3-yl)thio)ethyl)-3-hydroxyazetidine-3-carboxamide]
Second: N#CC1(C(=O)NCCSc2nonc2C(=NO)Nc2ccc(F)c(C(F)F)c2)CNC1 [Example 125, 3-Cyano-N-(2-((4-(N-(3-(difluoromethyl)-4-fluorophenyl)-N′-hydroxycarbamimidoyl)-1,2,5-oxadiazol-3-yl)thio)ethyl)azetidine-3-carboxamide]
The IC50 of the first is lower: less than 100 nM for the first, 100 to 1000 nM for the second. The first is the more potent here.

For `CN1CCC1C(=O)NCCSc1nonc1C(=NO)Nc1ccc(F)c(C(F)F)c1` (stereo not drawn) [Example 124/1, N-(2-((4-(N-(3-(Difluoromethyl)-4-fluorophenyl)-N′-hydroxycarbamimidoyl)-1,2,5-oxadiazol-3-yl)thio)ethyl)-1-methylazetidine-2-carboxamide], the IC50 was less than 100 nM.
